For the assay, the target named is 20S proteasome (Homo sapiens, UniProt P28072+P28074+Q99436). The assay can be described thus: activation of Ac-Arg-Leu-Arg-AMC hydrolysis. Type of assay: biochemical. The note with it: activator, trypsin-like activity.

Consider two compounds from publication PMC5524191 (ACS chemical biology, 2016).

Molecules are shown by their SMILES.

On to `C=C(CC)C(=O)c1ccc(OCC(=O)NCCCCCCNC(=O)[C@H](CCCNC(=O)OC(C)(C)C)NC(=O)OC(C)(C)C)c(Cl)c1Cl` [compound 4, EA-B2O], for which the fold activation entry was “Activation of the trypsin-like subunits was also observed with EA-B1G and EA-B2O”.

For the compound `C=C(CC)C(=O)c1ccc(OCC(=O)NCCCCCCNC(=O)CNC(=O)OC(C)(C)C)c(Cl)c1Cl` [compound 5, EA-B1G], the fold activation entry was “Activation of the trypsin-like subunits was also observed with EA-B1G and EA-B2O”.
